How the values were obtained:
[1] = Acute intervention: nutrikinetics of plasma metabolites after ingestion of L. citriodora extract (untargeted HPLC-ESI-QTOF-MS)
Procedure: A total of 25 healthy individuals participated, with an average age of 27 ± 9 years and a mean body mass index (BMI) of 23 ± 3 kg/m^2. None of the participants were taking any medications or nutritional supplements nor did they have any chronic diseases or gastrointestinal issues. The sample size was established based on findings from previous bioavailability research.[14] All participants provided informed consent before participating in the study.
The intervention study was carried out at Miguel Hernández University. Following an overnight fast, the volunteers were categorized into the subsequent groups: a subgroup to evaluate the LC leaf extract (n = 8), another for the OE leaf extract (n = 8), and the placebo subgroup (n = 9). This was a double-blind study, in which sample collection and treatment were carried out uniformly across all three subgroups.
Water was provided ad libitum. Prior to the ingestion of the capsule, a nurse inserted a cannula into the ulnar vein of each volunteer’s nondominant arm, and blood samples were drawn into EDTA-coated tubes at baseline (t = 0). Blood samples were then collected at 0.5, 1, 2, 4, 6, 8, and 10 h after the consumption of the 500 mg capsule. Plasma was separated through centrifugation (10 min at 3000 rpm and 4 °C) and stored at −80 °C until further analysis.
Plasma samples were initially treated using a mixture of methanol and ethanol (50:50; v:v) to remove proteins, following previously reported protocols.[19] During the sample treatment, pooled quality controls (pooled-QC) were prepared by combining equal aliquots from each sample. These QC samples were processed by using the same protocols as the experimental biological samples.
A reversed-phase analytical C18 column (Agilent Zorbax Eclipse Plus, 1.8 μm, 4.6 × 150 mm^2) with a protective cartridge with the same packing was used. MS data were acquired in negative ionization mode, operating in full scan across a mass-to-charge ratio (m/z) range of 50–1700. The analytical method used was adapted from that described by Villegas-Aguilar et al.[19]
Metabolite nutrikinetics were studied using PKSolver, an add-in program for pharmacokinetic data analysis in Microsoft Excel. The time to reach the maximum concentration (observed Tmax) was calculated for each significant metabolite. As an untargeted metabolomic approach was used to detect the circulating metabolites, these were not quantified. Therefore, the maximum concentration (Cmax) and area under the curve (AUC) parameters were calculated in a relative way by using the deconvoluted chromatographic areas. […] Statistical differences were determined by unpaired t tests. All p values less than 0.05 were considered statistically significant.

[2] = Acute intervention: nutrikinetics of plasma metabolites after ingestion of O. europaea extract (untargeted HPLC-ESI-QTOF-MS)
Outline: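 Fasted healthy volunteers (n = 8 per extract, placebo n = 9, double-blind) took one 500 mg capsule. Plasma was drawn at 0–10 h, protein-precipitated with methanol:ethanol and analysed by C18 HPLC-ESI-QTOF-MS in negative full scan (m/z 50–1700). Tmax was observed; Cmax and AUC are relative, from deconvoluted peak areas.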

[3] = 0.5 h after L. citriodora extract
[4] = 1 h after L. citriodora extract
[5] = 2 h after L. citriodora extract
[6] = 4 h after L. citriodora extract
[7] = 6 h after L. citriodora extract
[8] = 8 h after L. citriodora extract
[9] = 10 h after L. citriodora extract
[10] = human plasma, 500 mg capsule of L. citriodora (LC) extract, oral, mean ± SD
[11] = 0.5 h after O. europaea extract
[12] = human plasma, 500 mg capsule of O. europaea (OE) extract, oral, mean ± SD

For `COc1cc(C(=O)O)ccc1OS(=O)(=O)O` [vanillic acid 4-O-sulfate isomer 1, vanillic acid 4-O-sulfate], the “mean chromatographic area in plasma, T0.5” value [1, 3] was 0, the “mean chromatographic area in plasma, T1” value [1, 4] was 0 and the “mean chromatographic area in plasma, T2” value [1, 5] was 97. For the same compound, the “mean chromatographic area in plasma, T4” value [1, 6] was 395, the “mean chromatographic area in plasma, T6” value [1, 7] was 548 and the “mean chromatographic area in plasma, T8” value [1, 8] was 588. For the same compound, the “mean chromatographic area in plasma, T10” value [1, 9] was 365, the “AUC: area under the zero-moment curve” value [1, 10] was 3576 ± 3122 relative chromatographic area/h and the “Cmax: relative maximum plasma level” value [1, 10] was 874 ± 644 relative chromatographic area. For the same compound, the “observed Tmax: time required to reach Cmax” value (from here on “observed Tmax: time required”) [1, 10] was 8 ± 3 h, the “mean chromatographic area in plasma, T0.5” value [2, 11] was 275 and the “mean chromatographic area in plasma, T1” value ([2]; 1 h after O. europaea extract) was 489. For the same compound, the “mean chromatographic area in plasma, T2” value ([2]; 2 h after O. europaea extract) was 354, the “mean chromatographic area in plasma, T4” value ([2]; 4 h after O. europaea extract) was 279 and the “mean chromatographic area in plasma, T6” value ([2]; 6 h after O. europaea extract) was 216. For the same compound, the “mean chromatographic area in plasma, T8” value ([2]; 8 h after O. europaea extract) was 137, the “mean chromatographic area in plasma, T10” value ([2]; 10 h after O. europaea extract) was 60 and the “Cmax: relative maximum plasma level” value [2, 12] was 489 ± 147 relative chromatographic area. The “observed Tmax: time required” value [2, 12] was 1.0 ± 0.0 h.
For homovanillic acid glucuronide, the “AUC: area under the zero-moment curve” value ([1]; human, in vivo, po, 500 mg) was 1345 ± 1042 relative chromatographic area/h, the “Cmax: relative maximum plasma level” value ([1]; human, in vivo, po, 500 mg) was 360 ± 219 relative chromatographic area and the “mean chromatographic area in plasma, T0.5” value ([1]; in vivo) was 0. For the same compound, the “mean chromatographic area in plasma, T1” value ([1]; in vivo) was 0, the “mean chromatographic area in plasma, T2” value ([1]; in vivo) was 0 and the “mean chromatographic area in plasma, T4” value ([1]; in vivo) was 114. The “mean chromatographic area in plasma, T6” value ([1]; in vivo) was 232, the “mean chromatographic area in plasma, T8” value ([1]; in vivo) was 219 and the “mean chromatographic area in plasma, T10” value ([1]; in vivo) was 214. The “Cmax: relative maximum plasma level” value ([2]; human, in vivo, po, 500 mg) was 199 ± 54 relative chromatographic area, the “mean chromatographic area in plasma, T0.5” value ([2]; in vivo) was 13 and the “mean chromatographic area in plasma, T1” value ([2]; in vivo) was 94. The “mean chromatographic area in plasma, T2” value ([2]; in vivo) was 99, the “mean chromatographic area in plasma, T4” value ([2]; in vivo) was 182 and the “mean chromatographic area in plasma, T6” value ([2]; in vivo) was 141. For the same compound, the “mean chromatographic area in plasma, T8” value ([2]; in vivo) was 80 and the “mean chromatographic area in plasma, T10” value ([2]; in vivo) was 58.
In the case of “homovanillic acid sulfate [homovanillic acid sulfate isomer 2]”, the “AUC: area under the zero-moment curve” value ([1]; human, in vivo, po, 500 mg) is reported as 1771 ± 1599 relative chromatographic area/h, the “Cmax: relative maximum plasma level” value ([1]; human, in vivo, po, 500 mg) is reported as 476 ± 363 relative chromatographic area and the “observed Tmax: time required” value ([1]; human, in vivo, po, 500 mg) is reported as 9 ± 2 h. The “mean chromatographic area in plasma, T0.5” value ([1]; in vivo) was 0, the “mean chromatographic area in plasma, T1” value ([1]; in vivo) was 0 and the “mean chromatographic area in plasma, T2” value ([1]; in vivo) was 25. For the same compound, the “mean chromatographic area in plasma, T4” value ([1]; in vivo) was 112, the “mean chromatographic area in plasma, T6” value ([1]; in vivo) was 215 and the “mean chromatographic area in plasma, T8” value ([1]; in vivo) was 336. For the same compound, the “mean chromatographic area in plasma, T10” value ([1]; in vivo) was 408, the “Cmax: relative maximum plasma level” value ([2]; human, in vivo, po, 500 mg) was 215 ± 68 relative chromatographic area and the “observed Tmax: time required” value ([2]; human, in vivo, po, 500 mg) was 4 ± 2 h. For the same compound, the “mean chromatographic area in plasma, T0.5” value ([2]; in vivo) was 0, the “mean chromatographic area in plasma, T1” value ([2]; in vivo) was 76 and the “mean chromatographic area in plasma, T2” value ([2]; in vivo) was 161. The “mean chromatographic area in plasma, T4” value ([2]; in vivo) was 191, the “mean chromatographic area in plasma, T6” value ([2]; in vivo) was 182 and the “mean chromatographic area in plasma, T8” value ([2]; in vivo) was 154. For the same compound, the “mean chromatographic area in plasma, T10” value ([2]; in vivo) was 130.
With “hydroxytyrosol glucuronide [hydroxytyrosol glucuronide isomer 2]” the “mean chromatographic area in plasma, T0.5” value [1, 3] was 0, the “mean chromatographic area in plasma, T1” value [1, 4] was 0 and the “mean chromatographic area in plasma, T2” value [1, 5] was 0. For the same compound, the “mean chromatographic area in plasma, T4” value [1, 6] was 48, the “mean chromatographic area in plasma, T6” value [1, 7] was 81 and the “mean chromatographic area in plasma, T8” value [1, 8] was 34. The “mean chromatographic area in plasma, T10” value [1, 9] was 23, the “AUC: area under the zero-moment curve” value [1, 10] was 350 ± 158 relative chromatographic area/h and the “Cmax: relative maximum plasma level” value [1, 10] was 106 ± 17 relative chromatographic area. The “observed Tmax: time required” value [1, 10] was 8 ± 2 h, the “observed Tmax: time required” value ([1]; human plasma, 500 mg capsule of L. citriodora (LC) extract, oral, mean ± SD, listed as hydroxytyrosol glucuronide) was 7 ± 2 h and the “mean chromatographic area in plasma, T0.5” value [2, 11] was 1726. The “mean chromatographic area in plasma, T1” value ([2]; 1 h after O. europaea extract) was 2553, the “mean chromatographic area in plasma, T2” value ([2]; 2 h after O. europaea extract) was 1437 and the “mean chromatographic area in plasma, T4” value ([2]; 4 h after O. europaea extract) was 507. For the same compound, the “mean chromatographic area in plasma, T6” value ([2]; 6 h after O. europaea extract) was 251, the “mean chromatographic area in plasma, T8” value ([2]; 8 h after O. europaea extract) was 161 and the “mean chromatographic area in plasma, T10” value ([2]; 10 h after O. europaea extract) was 75. For the same compound, the “Cmax: relative maximum plasma level” value [2, 12] was 2627 ± 1167 relative chromatographic area, the “observed Tmax: time required” value [2, 12] was 0.9 ± 0.2 h and the “observed Tmax: time required” value ([2]; human plasma, 500 mg capsule of O. europaea (OE) extract, oral, mean ± SD, listed as hydroxytyrosol glucuronide) was 1 h.
In the case of “hydroxytyrosol sulfate [hydroxytyrosol sulfate isomer 2]”, the “mean chromatographic area in plasma, T0.5” value [1, 3] is reported as 0, the “mean chromatographic area in plasma, T1” value [1, 4] is reported as 0 and the “mean chromatographic area in plasma, T2” value [1, 5] is reported as 138. For the same compound, the “mean chromatographic area in plasma, T4” value [1, 6] was 289, the “mean chromatographic area in plasma, T6” value [1, 7] was 575 and the “mean chromatographic area in plasma, T8” value [1, 8] was 591. For the same compound, the “mean chromatographic area in plasma, T10” value [1, 9] was 686, the “AUC: area under the zero-moment curve” value [1, 10] was 3802 ± 2564 relative chromatographic area/h and the “Cmax: relative maximum plasma level” value [1, 10] was 902 ± 428 relative chromatographic area. The “observed Tmax: time required” value [1, 10] was 8 ± 2 h, the “observed Tmax: time required” value ([1]; human plasma, 500 mg capsule of L. citriodora (LC) extract, oral, mean ± SD, listed as hydroxytyrosol sulfate) was 7 ± 2 h and the “mean chromatographic area in plasma, T0.5” value [2, 11] was 336. The “mean chromatographic area in plasma, T1” value ([2]; 1 h after O. europaea extract) was 646, the “mean chromatographic area in plasma, T2” value ([2]; 2 h after O. europaea extract) was 605 and the “mean chromatographic area in plasma, T4” value ([2]; 4 h after O. europaea extract) was 202. The “mean chromatographic area in plasma, T6” value ([2]; 6 h after O. europaea extract) was 235, the “mean chromatographic area in plasma, T8” value ([2]; 8 h after O. europaea extract) was 140 and the “mean chromatographic area in plasma, T10” value ([2]; 10 h after O. europaea extract) was 202. The “Cmax: relative maximum plasma level” value [2, 12] was 836 ± 359 relative chromatographic area, the “observed Tmax: time required” value [2, 12] was 3 ± 3 h and the “observed Tmax: time required” value ([2]; human plasma, 500 mg capsule of O. europaea (OE) extract, oral, mean ± SD, listed as hydroxytyrosol sulfate) was 1 h.

Reference: article PMC11544713, “The Application of Untargeted Metabolomic Approaches for the Search of Common Bioavailable Metabolites in Human Plasma Samples from Lippia citriodora and Olea europaea Extracts” (Journal of Agricultural and Food Chemistry, 2024)
